Measurements reported in patent publication US20030203890A1 (priority 2001, published 2003).
Read-outs that look alike come from different tables or passages of the source.

Tests used:
cavernous nerve = experiment: Intracavernosal pressure (ICP) response to electrostimulation after cavernous nerve crush injury; format: in vivo, Sprague-Dawley rats; settings: for ICP response, Control side: control (intact) side; for ICP response, Control side / ICP response, Crush side: 1 day following R-cavernous nerve crush, i.p., FK506 1 mg/kg, Compound 153 15 mg/kg, +/- sem; for ICP response, Crush side: crush (injured) side
Method: (§1) Cavernous nerve injury was performed in 12 week old Sprague-Dawley rats by crushing the right cavernous nerve for 3×15 seconds with a fine tip forceps. The rats were treated with saline or Compound 153 (15 mg/kg i.p.) just prior to nerve crush. The right and left major pelvic ganglia were processed for nNOS immunoreactivity. Intracavernosal pressure (ICP) responses to electrostimulation of the right (injured) and left (intact) cavernous nerves were recorded for each animal at 24 hours or 7 days post injury.

sciatic nerve = settings: rats with crushed sciatic nerves; Gold et al. 1994/1995, Steiner et al. 1997; cited from earlier work
FKBP12 = FKBP12 (Homo sapiens, UniProt P62942); experiment: K1 test procedure: inhibition of peptidyl-prolyl isomerase (rotamase) activity of FKBP12, chymotrypsin-coupled assay; format: biochemical
Method: The inhibition of the prolyl peptidyl cis-trans isomerase activity of FKBP may be measured as an indicator of this affinity.
The cis-trans isomerization of an alanine-proline bond in a model substrate, N-succinyl-Ala-Ala-Pro-Phe-p-nitroanilide, is monitored spectrophotometrically in a chymotrypsin-coupled assay, which releases paranitroanilide from the trans form of the substrate. The inhibition of this reaction caused by the addition of different concentrations of inhibitor is determined, and the data is analyzed as a change in first-order rate constant as a function of inhibitor concentration to yield the apparent K1 values.
In a plastic cuvette are added […] of ice cold assay buffer (25 mM HEPES, pH 7.8, 100 mM NaCl), […] of FKBP (2.5 mM in 10 mM Tris-Cl pH 7.5, 100 mM NaCl, 1 mM dithiothreitol), […] of chymotrypsin (50 mg/ml in 1 mM HCl) and […] of test compound at various concentrations in dimethyl sulfoxide.

major pelvic ganglia [1] = experiment: Cresyl Violet staining of right and left major pelvic ganglia after cavernous nerve crush; format: in vivo, Sprague-Dawley rats; settings: FIG. 2; rat right cavernous nerve crush
major pelvic ganglia [2] = experiment: nNOS immunoreactivity of right and left major pelvic ganglia after cavernous nerve crush; format: in vivo, Sprague-Dawley rats; settings: FIG. 1; rat right cavernous nerve crush; 15 mg/kg i.p. just prior to nerve crush
Method: as §1

[3] = apparent Ki, rotamase inhibition, Table XLI, Formulas I to XIV, read-out: Ki
[4] = relative potency ranking, Table XLII, Formulas XV to XXIV, read-out: Ki
[5] = apparent Ki, rotamase inhibition, Table XLIII, Formulas XXV to XXIX, read-out: K1

FKBP12, sequence (P62942 whole entry, species assumed): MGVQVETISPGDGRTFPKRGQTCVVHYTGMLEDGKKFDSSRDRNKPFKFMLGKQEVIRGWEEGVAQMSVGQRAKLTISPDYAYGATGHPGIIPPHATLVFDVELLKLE

Q: With `C=CC[C@@H]1/C=C(\C)C[C@H](C)C[C@H](OC)[C@H]2O[C@@](O)(C(=O)C(=O)N3CCCC[C@H]3C(=O)O[C@H](/C(C)=C/[C@@H]3CC[C@@H](O)[C@H](OC)C3)[C@H](C)[C@@H](O)CC1=O)[C@H](C)C[C@@H]2OC` [FK506, reference compound] as the compound, how does the “ICP response, Control side” value (cavernous nerve) read?
A: 36.9 +/− 7.7

Q: And the “ICP response, Crush side” value (cavernous nerve)?
A: 32.0 +/− 6.7

Q: Which “nerve regeneration and morphological/functional recovery following sciatic nerve crush” value (sciatic nerve) does the source give for `CC[C@@H]1/C=C(\C)[C@@H](O)[C@H](C)C[C@H](OC)[C@H]2O[C@@](O)(C(=O)C(=O)N3CCCC[C@H]3C(=O)O[C@H](/C(C)=C/[C@@H]3CC[C@@H](O)[C@H](OC)C3)[C@H](C)[C@@H](O)CC1=O)[C@H](C)C[C@@H]2OC` [L-685,818] here?
A: as effective as FK506

Q: For `O=C(C(=O)N1CCC[C@H]1C(=O)SCCCCc1ccccc1)C1CCCCC1` [compound 33], which Ki (FKBP12; [3]) is on record?
A: 1700 nM

Q: For `CCC(C)(C)C(=O)C(=O)N1CCC[C@H]1C(=O)SCCCc1cccc2ccccc12` [compound 47], which Ki (FKBP12; [3]) is on record?
A: 21 nM

Q: For `CCC(C)(C)C(=O)C(=O)N1CCC[C@H]1C(=O)OCCCc1ccc[n+]([O-])c1` [compound 95], which Ki (FKBP12; [3]) is on record?
A: 225 nM

Q: For `CCC(C)CNC(=O)N1CCC[C@H]1C(=O)SCCCc1cccnc1` (stereo partly drawn) [compound 101, 3-(3-Pyridyl)-1-propylmercaptyl 2S-1-[(2-methylbutyl)carbamoyl]pyrrolidine-2-carboxylate], which Ki (FKBP12; [4]) is on record?
A: 1 to 50 nM

Q: For `CCC(C)(C)NC(=O)N1CCC[C@H]1C(=O)SCCCc1cccnc1` [compound 102], which Ki (FKBP12; [4]) is on record?
A: 51 to 200 nM

Q: Which Ki (FKBP12; [4]) does the source give for `COc1ccc(CCCSC(=O)C2CCCN2C(=S)NC2CCCCC2)cc1` (stereo not shown) [compound 105] here?
A: 51 to 200 nM

Q: With `CCC(C)(C)NC(=S)N1CCCC1C(=O)SCCCc1cccnc1` (stereo not shown) [compound 109] as the compound, how does the Ki (FKBP12; [4]) read?
A: 1 to 50 nM

Q: For `CCC(C)(C)NC(=O)N1CCCC1C(=O)SCCC(c1ccccc1)c1ccccc1` (stereo not shown) [compound 110], which Ki (FKBP12; [4]) is on record?
A: 1 to 50 nM

Q: With `O=C(SC(CCc1ccccc1)CCc1ccccc1)C1CCCCN1C(=O)NC1CCCCC1` (stereo not shown) [compound 114] as the compound, how does the Ki (FKBP12; [4]) read?
A: 1 to 50 nM

Q: Which Ki (FKBP12; [4]) does the source give for `COc1ccc(CCCSC(=O)[C@@H]2CCCN2S(=O)(=O)c2ccccc2)cc1` [compound 120, 3-(para-Methoxyphenyl)-1-propylmercaptyl(2S)-N-(benzenesulfonyl)pyrrolidine-2-carboxylate] here?
A: 51 to 200 nM

Q: For `COc1ccc(CCCSC(=O)[C@@H]2CCCN2S(=O)(=O)Cc2ccccc2)cc1` [compound 121, 3-(para-Methoxyphenyl)-1-propylmercaptyl(2S)-N-(a-toluenesulfonyl)pyrrolidine-2-carboxylate], which Ki (FKBP12; [4]) is on record?
A: 51 to 200 nM

Q: For `COc1ccc(CCCSC(=O)[C@@H]2CCCN2S(=O)(=O)c2ccc(C)cc2)cc1` [compound 122, 3-(para-Methoxyphenyl)-1-propylmercaptyl(2S)-N-(a-toluenesulfonyl)pyrrolidine-2-carboxylate], which Ki (FKBP12; [4]) is on record?
A: 201 to 500 nM

Q: With `CCC(C)(C)C(=O)C(=O)N1CCC[C@H]1C(=O)OC/C=C/c1cc(OC)ccc1OC` [compound 151, 3-(2,5-dimethoxyphenyl)-1-prop-2-(E)-enyl (2S)-1-(3,3-dimethyl-1,2-dioxopentyl)-2-pyrrolidine-carboxylate] as the compound, how does the Ki (FKBP12; [5]) read?
A: 450 nM

Q: With `CCC(C)(C)C(=O)C(=O)N1CCC[C@H]1C(=O)OCCCc1cccnc1` [compound 153, 3-(3-Pyridyl)-1-propyl (2S)-1-(3,3-dimethyl-1,2-dioxopentyl)-2-pyrrolidinecarboxylate] as the compound, how does the “effect on the right and left major pelvic ganglia as processed for Cresyl Violet staining” value (major pelvic ganglia [1]) read?
A: protective effect

Q: What about the “effect on the right and left major pelvic ganglia as processed for nNOS immunoreactivity” value (major pelvic ganglia [2]) of the same compound?
A: protective effect

Q: What about the “effect of administration on crushed cavernous nerves” value (cavernous nerve; Example 30, rats, 15 mg/kg i.p. just prior to nerve crush) of the same compound?
A: regenerate the penile cavernous nerve

Q: What about the “ICP response, Control side” value (cavernous nerve) of the same compound?
A: 42.8 +/− 1.9

Q: And the “ICP response, Crush side” value (cavernous nerve)?
A: 42.7 +/− 2.2

Q: Which Ki (FKBP12; [5]) does the source give for `CC1(C)COC(=O)CCCCCCCCCCCOC(=O)[C@@H]2CCCCN2C(=O)C1=O` [compound 186, (24aS)-17,17-dimethylperhydropyrido[2,1-c] [1,9,4]dioxazacyclohenicosine-1,14,18,19-tetraone] here?
A: 150 nM
